Here are results for six molecules from US7388105B2, “Compounds and use to reduce the formation of malodour” (Givaudan S.A., priority 2005, dated 2008).

The target of the first assay is alpha-N-acyl-glutamine-aminoacylase (Corynebacterium striatum, UniProt Q8GGD4). Kind of assay: Competitive substrates of alpha-N-acyl-glutamine-aminoacylase: reduction of acid release. Type of assay: biochemical. Conditions: summary of Table 1. As to the method: In a sample, the enzyme alpha-N-acyl-glutamine-aminoacylase was used at a concentration of 36 ng/ml in Buffer A (50 mM NaCl; 50 mM NaH2PO4/K2HPO4; pH 7). To each sample, alpha-N-decanoyl-glutamine or alpha-N-(E)-3-methyl-2-hexenoyl-glutamine was added at a final concentration of 0.2 mM as a substrate.
Sequence of alpha-N-acyl-glutamine-aminoacylase (Q8GGD4 whole entry): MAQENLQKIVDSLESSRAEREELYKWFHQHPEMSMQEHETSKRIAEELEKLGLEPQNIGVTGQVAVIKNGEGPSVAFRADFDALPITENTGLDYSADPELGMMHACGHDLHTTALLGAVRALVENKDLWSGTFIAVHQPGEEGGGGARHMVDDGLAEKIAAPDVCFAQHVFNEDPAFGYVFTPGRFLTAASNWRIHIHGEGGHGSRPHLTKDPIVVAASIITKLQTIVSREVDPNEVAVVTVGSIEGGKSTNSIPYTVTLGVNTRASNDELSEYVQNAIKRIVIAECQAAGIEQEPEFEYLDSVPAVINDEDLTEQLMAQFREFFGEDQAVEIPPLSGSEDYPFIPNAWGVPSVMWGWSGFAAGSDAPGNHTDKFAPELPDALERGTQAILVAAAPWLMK
Further, to each sample various competitive substrates are added as shown in Table 1 below at different concentrations as indicated.
The resulting samples with enzyme, substrate and competitive substrate were incubated for 15 minutes, acidified to pH 2 with HCl and extracted with methyl tert butyl ether (MTBE). […] The percentage of the reduction of the release when compared to the positive control is given in Table 1 (equals inhibition of the enzmye).
For `CC(CCOC(=O)NC(CCC(N)=O)C(=O)O)CCc1ccccc1` [Compound 1, alpha-N-(3-Methyl-5-phenylpentanyloxycarbonyl)-L-glutamine], the “Inhibition of Nα-acyl-glutamine-aminoacylase (in words)” value is “particularly good inhibitor”.

The assay is the same for the next values; noted with them: tested compound 0.05 mM; substrate alpha-N-decanoyl-glutamine 0.2 mM; release of decanoic acid vs positive control; 15 min; read-out: % Inhibition (DA).
In general, inhibition refers to the drop in the measured response relative to a control, in per cent. For `CC(CCOC(=O)NC(CCC(N)=O)C(=O)O)CCc1ccccc1` [Compound 1, alpha-N-(3-Methyl-5-phenylpentanyloxycarbonyl)-L-glutamine], the inhibition at 50 µM came to 38.3%.
On the same count and under the same terms, the same measure for `C=CCCCCCCCCC(=O)NC(CCC(N)=O)C(=O)O` [Compound 2, alpha-N-(10-undecenoyl)-L-glutamine]: 0.9%; for `CC(C)=CCCC(C)CCOC(=O)NC(CCC(N)=O)C(=O)O` [Compound 4, alpha-N-(3,7-dimethyl-oct-6-enyloxycarbonyl)-L-glutamine]: 15.9%; for `CCCCOC(=O)N[C@@H](CCC(N)=O)C(=O)O` [Compound 5, alpha-N-Butyloxycarbonyl-L-glutamine]: 6.7%.
Still for that read-out and setting: the same measure for `CC(C)(C)C1CCC(OC(=O)N[C@@H](CCC(N)=O)C(=O)O)CC1` (stereo partly drawn) [Compound 6, alpha-N-(4-tert-Butylcyclohexyloxycarbonyl)-L-glutamine]: 11.3%.

The assay is the same for the next values; noted with them: tested compound 0.1 mM; substrate alpha-N-(E)-3-methyl-2-hexenoyl-glutamine 0.2 mM; release of (E)-3-methyl-2-hexenoic acid vs positive control; 15 min; read-out: % Inhibition (MH).
With `CC(CCOC(=O)NC(CCC(N)=O)C(=O)O)CCc1ccccc1` [Compound 1, alpha-N-(3-Methyl-5-phenylpentanyloxycarbonyl)-L-glutamine], the inhibition at 100 µM turned out to be 35.5%.
On to `C=CCCCCCCCCC(=O)NC(CCC(N)=O)C(=O)O` [Compound 2, alpha-N-(10-undecenoyl)-L-glutamine], for which the inhibition at 100 µM was determined as 0%.
Consider `CC1CCC(C(C)C)C(OC(=O)NC(CCC(N)=O)C(=O)O)C1` [Compound 3, alpha-N-(2-isopropyl-5-methylcyclohexanyloxycarbonyl)-L-glutamine], for which the inhibition at 100 µM turned out to be 7.4%.
The same measure, in the same setting: the value for `CC(C)=CCCC(C)CCOC(=O)NC(CCC(N)=O)C(=O)O` [Compound 4, alpha-N-(3,7-dimethyl-oct-6-enyloxycarbonyl)-L-glutamine] was -0.3%; that for `CCCCOC(=O)N[C@@H](CCC(N)=O)C(=O)O` [Compound 5, alpha-N-Butyloxycarbonyl-L-glutamine] was 1.1%; that for `CC(C)(C)C1CCC(OC(=O)N[C@@H](CCC(N)=O)C(=O)O)CC1` (stereo partly drawn) [Compound 6, alpha-N-(4-tert-Butylcyclohexyloxycarbonyl)-L-glutamine] was 4.9%.

Still in this assay, the particulars now being: tested compound 0.1 mM; substrate alpha-N-decanoyl-glutamine 0.2 mM; release of decanoic acid vs positive control; 15 min; read-out: % Inhibition (DA).
With `CC(CCOC(=O)NC(CCC(N)=O)C(=O)O)CCc1ccccc1` [Compound 1, alpha-N-(3-Methyl-5-phenylpentanyloxycarbonyl)-L-glutamine], the inhibition at 100 µM was determined as 57%.
Same read-out and setting: the same measure for `C=CCCCCCCCCC(=O)NC(CCC(N)=O)C(=O)O` [Compound 2, alpha-N-(10-undecenoyl)-L-glutamine]: 2.2%.
As for `CC1CCC(C(C)C)C(OC(=O)NC(CCC(N)=O)C(=O)O)C1` [Compound 3, alpha-N-(2-isopropyl-5-methylcyclohexanyloxycarbonyl)-L-glutamine], the inhibition at 100 µM came to 19.3%.
The same measure, in the same setting: the value for `CC(C)=CCCC(C)CCOC(=O)NC(CCC(N)=O)C(=O)O` [Compound 4, alpha-N-(3,7-dimethyl-oct-6-enyloxycarbonyl)-L-glutamine] was 13.8%; that for `CCCCOC(=O)N[C@@H](CCC(N)=O)C(=O)O` [Compound 5, alpha-N-Butyloxycarbonyl-L-glutamine] was 6.8%.
The same measure, in the same setting: the same measure for `CC(C)(C)C1CCC(OC(=O)N[C@@H](CCC(N)=O)C(=O)O)CC1` (stereo partly drawn) [Compound 6, alpha-N-(4-tert-Butylcyclohexyloxycarbonyl)-L-glutamine]: 14.3%.

Staying with this assay, now noted: tested compound 0.2 mM; substrate alpha-N-(E)-3-methyl-2-hexenoyl-glutamine 0.2 mM; release of (E)-3-methyl-2-hexenoic acid vs positive control; 15 min; read-out: % Inhibition (MH).
For `CC(CCOC(=O)NC(CCC(N)=O)C(=O)O)CCc1ccccc1` [Compound 1, alpha-N-(3-Methyl-5-phenylpentanyloxycarbonyl)-L-glutamine], the inhibition at 200 µM was 58.1%.
Same read-out and setting: the value for `C=CCCCCCCCCC(=O)NC(CCC(N)=O)C(=O)O` [Compound 2, alpha-N-(10-undecenoyl)-L-glutamine] was 2.1%; that for `CC1CCC(C(C)C)C(OC(=O)NC(CCC(N)=O)C(=O)O)C1` [Compound 3, alpha-N-(2-isopropyl-5-methylcyclohexanyloxycarbonyl)-L-glutamine] was 16.5%; that for `CC(C)=CCCC(C)CCOC(=O)NC(CCC(N)=O)C(=O)O` [Compound 4, alpha-N-(3,7-dimethyl-oct-6-enyloxycarbonyl)-L-glutamine] was 17.1%.
Turning to `CCCCOC(=O)N[C@@H](CCC(N)=O)C(=O)O` [Compound 5, alpha-N-Butyloxycarbonyl-L-glutamine], the inhibition at 200 µM was 0%.
With `CC(C)(C)C1CCC(OC(=O)N[C@@H](CCC(N)=O)C(=O)O)CC1` (stereo partly drawn) [Compound 6, alpha-N-(4-tert-Butylcyclohexyloxycarbonyl)-L-glutamine], the inhibition at 200 µM stood at 14.8%.

Still in this assay, the particulars now being: tested compound 0.2 mM; substrate alpha-N-decanoyl-glutamine 0.2 mM; release of decanoic acid vs positive control; 15 min; read-out: % Inhibition (DA).
For `CC(CCOC(=O)NC(CCC(N)=O)C(=O)O)CCc1ccccc1` [Compound 1, alpha-N-(3-Methyl-5-phenylpentanyloxycarbonyl)-L-glutamine], the inhibition at 200 µM was 64.4%.
Take `C=CCCCCCCCCC(=O)NC(CCC(N)=O)C(=O)O` [Compound 2, alpha-N-(10-undecenoyl)-L-glutamine]: the inhibition at 200 µM is 15.6%.
On the same count and under the same terms, the value for `CC1CCC(C(C)C)C(OC(=O)NC(CCC(N)=O)C(=O)O)C1` [Compound 3, alpha-N-(2-isopropyl-5-methylcyclohexanyloxycarbonyl)-L-glutamine] was 27.2%.
Turning to `CC(C)=CCCC(C)CCOC(=O)NC(CCC(N)=O)C(=O)O` [Compound 4, alpha-N-(3,7-dimethyl-oct-6-enyloxycarbonyl)-L-glutamine], the inhibition at 200 µM was 34.6%.
Same read-out and setting: the value for `CCCCOC(=O)N[C@@H](CCC(N)=O)C(=O)O` [Compound 5, alpha-N-Butyloxycarbonyl-L-glutamine] was 10.4%; that for `CC(C)(C)C1CCC(OC(=O)N[C@@H](CCC(N)=O)C(=O)O)CC1` (stereo partly drawn) [Compound 6, alpha-N-(4-tert-Butylcyclohexyloxycarbonyl)-L-glutamine] was 21.2%.

Staying with this assay, now noted: tested compound 0.4 mM; substrate alpha-N-(E)-3-methyl-2-hexenoyl-glutamine 0.2 mM; release of (E)-3-methyl-2-hexenoic acid vs positive control; 15 min; read-out: % Inhibition (MH).
Take `CC(CCOC(=O)NC(CCC(N)=O)C(=O)O)CCc1ccccc1` [Compound 1, alpha-N-(3-Methyl-5-phenylpentanyloxycarbonyl)-L-glutamine]: the inhibition at 400 µM was 78.3%.
Same read-out and setting: the same measure for `C=CCCCCCCCCC(=O)NC(CCC(N)=O)C(=O)O` [Compound 2, alpha-N-(10-undecenoyl)-L-glutamine]: 24.2%.
For the molecule `CC1CCC(C(C)C)C(OC(=O)NC(CCC(N)=O)C(=O)O)C1` [Compound 3, alpha-N-(2-isopropyl-5-methylcyclohexanyloxycarbonyl)-L-glutamine], the inhibition at 400 µM was found to be 33.9%.
Same read-out and setting: the value for `CC(C)=CCCC(C)CCOC(=O)NC(CCC(N)=O)C(=O)O` [Compound 4, alpha-N-(3,7-dimethyl-oct-6-enyloxycarbonyl)-L-glutamine] was 16.1%; that for `CCCCOC(=O)N[C@@H](CCC(N)=O)C(=O)O` [Compound 5, alpha-N-Butyloxycarbonyl-L-glutamine] was 0%.
Take `CC(C)(C)C1CCC(OC(=O)N[C@@H](CCC(N)=O)C(=O)O)CC1` (stereo partly drawn) [Compound 6, alpha-N-(4-tert-Butylcyclohexyloxycarbonyl)-L-glutamine]: the inhibition at 400 µM amounted to 28.5%.
